The nature of data set [1]: Solubility of synthesized peptides in aqueous phase. The data set is classed as physicochemical. The settings on record: for solubility: in aqueous phase.
For another data set, the system named is mAb C5/D5. Briefly: Peptide competition of phage binding to C5/D5 by ELISA. The note with it: up to 10 mM. How it is done:
To mimic the possible constrained structure in phage, in vitro oxidation was performed after peptide synthesis to introduce disulfide bonds between Cysteine residues in these peptides. […] There are total four tryptophan (W) residues in CD47. W2 is part of the signal peptide and therefore is not present in the mature protein. W58 is present in the N-terminus extracellular IgV-like domain of CD47 and is conserved among many IgV super family members. W136 is also located in the putative extracellular domain whereas W157 is thought to be in a transmembrane region of the protein (Lindberg, et al., J. Cell Biol., 123(2): 485-96, 1993). Amino acids Arginine and Valine (RV/L), present in many selected CL10 and LL9 phages are adjacent in CD47 at amino acid position 132-133, two amino acids upstream from W136. Both amino acids R and V are also found close to W58. Thus, the C5/D5-binding sequence on CD47 is likely to comprise several distant residues brought into proximity by the folding of the protein.
Antibody phage binding assays were performed in microtiter plate wells (Limbro-Titertek, Flow Laboratories) which were coated with relevant antibodies (20 μg/ml) for two hours at room temperature. All subsequent incubations were performed at room temperature. […] Microtiter wells were then analyzed in a microtiter plate reader at 405 nanometers (nm).
In general terms: An ELISA detects its analyte on a solid surface through an enzyme-linked reagent.

Data set [2] addresses T1, CD47-SIRPα1 binding (CD47-AP / SIRPα1-GST) (Homo sapiens, UniProt P78324).
T1 construct: Microtiter plates were coated with SIRPα1 extracellular domain fusion protein (SIRPα1-GST, 1 μg/ml) for 2 hr; A construct consisting of the extracellular domain of human CD47 fused to the catalytic domain of human placental AP; made in house
Briefly: CD47-AP binding to immobilized SIRPα1-GST (alkaline phosphatase activity). The note with it: SIRPα-GST coated 2 μg/ml, CD47-AP 1-2 μg/ml. As to the method:
(§1) FIG. 2C (right panel) is a bar graph that illustrates CD47-AP specifically binds to SIRPα-GST fusion protein but not SIRPβ-GST. In this panel, microtiter plates were coated with either SIRPα-GST or highly similar SIRPβ-GST (10 μg/ml) followed by blocking with BSA. To each well was then added recombinant CD47-AP followed by washing. Bound CD47-AP was then detected by assay for alkaline phosphatase after addition of appropriate substrate.
FIGS. 6A-6C are graphs that illustrate the effects of synthetic peptides on CD47-SIRPα binding. FIG. 6A illustrates the effect of peptide C5/D5.1 on CD47-SIRPα binding. […] After blocking, CD47-AP was added in the absence or presence of synthetic peptides C5/D5.1 and control peptides C5/D5.4, C5/D5.11 and C5/D5.12 (used as 1 mM each). “*” p<0.01. CD47-AP binding was then detected by assay of alkaline phosphatase activity and normalized with respect to binding in the absence of any peptide (CD47-AP only). FIG. 6B illustrates the effect of dose-dependent inhibition of CD47-SIRPα1 binding by peptide C5/D5.1 performed as in FIG. 6A but with increasing concentrations of peptide as indicated. […] Binding of these proteins were detected by a goat anti-GST antibody followed by peroxidase conjugated anti-goat secondary (for detecting SIRPα1-GST) or directly developed for alkaline phosphatase activity (for detecting CD47-AP). […]

The target in another data set is T2, SIRPβ-GST (Homo sapiens, UniProt O00241).
T2 construct: The extracellular domain of SIRPα1, SIRPβ1 and GST fusion proteins were produced after transfected into 293E cells; made in house; host or cells: 293E cells
T2 sequence (O00241 30-371 limits assumed): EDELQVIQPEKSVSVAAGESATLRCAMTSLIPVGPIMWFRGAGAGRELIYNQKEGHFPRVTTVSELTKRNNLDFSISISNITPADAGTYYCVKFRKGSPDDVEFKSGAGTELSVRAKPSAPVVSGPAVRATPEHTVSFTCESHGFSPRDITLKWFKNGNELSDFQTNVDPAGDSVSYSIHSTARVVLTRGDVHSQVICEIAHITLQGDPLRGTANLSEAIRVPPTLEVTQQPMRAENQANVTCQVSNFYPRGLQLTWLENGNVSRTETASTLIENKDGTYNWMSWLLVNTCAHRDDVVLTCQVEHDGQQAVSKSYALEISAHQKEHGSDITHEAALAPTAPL
Briefly: CD47-AP binding to SIRPβ-GST coated wells. The settings on record: FIG. 2C. As to the method:
as §1
Since the above results and those of others (Jiang, et al J. Biol. Chem., 274: 559, Seiffert, et al., Blood, 94: 3633, Han, et al., J. Biol. Chem., 275: 37984, Oldenborg, et al., Science, 288: 2051) strongly implicate CD47 as a membrane receptor for SIRPα, experiments were performed to test the direct binding of the IgV loop of CD47 to SIRPα (FIG. 2B). A recombinant CD47 IgV loop fused to alkaline phosphatase (CD47-AP) was constructed as detailed in the methods and expressed in mammalian (CHO) cells in order to allow for proper folding and glycosylation. The expressed CD47-AP fusion protein was then purified by immunoaffinity chromatography using anti CD47 mAb PF3.1-Sepharose. The structure of CD47 IgV domain in the purified CD47-AP was further tested for the ability to react with multiple functionally blocking anti-CD47 extracellular domain-reactive mAbs (Liu, et al., J. Biol. Chem., 276: 40156). […]

Converted amounts (≈) assume the structure as drawn. Where a SMILES comes first, the peptide text is derived from it. Bridges are numbered along the chain shown (N, C = ends).

T1 sequence (P78324 31-373 limits assumed): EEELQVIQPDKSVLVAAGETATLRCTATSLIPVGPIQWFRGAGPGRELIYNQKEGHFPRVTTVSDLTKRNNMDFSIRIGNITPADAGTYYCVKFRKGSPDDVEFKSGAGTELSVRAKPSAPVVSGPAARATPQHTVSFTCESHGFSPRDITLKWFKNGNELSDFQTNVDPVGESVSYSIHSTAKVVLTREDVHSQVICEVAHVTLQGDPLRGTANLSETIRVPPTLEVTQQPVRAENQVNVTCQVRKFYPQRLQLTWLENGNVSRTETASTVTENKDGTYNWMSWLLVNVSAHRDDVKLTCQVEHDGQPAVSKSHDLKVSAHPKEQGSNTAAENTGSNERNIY

In general, solubility refers to the dissolved amount per volume that the medium holds. A lower solubility goes with little dissolved substance. Consider `CC[C@H](C)[C@@H]1NC(=O)[C@H](C(C)C)NC(=O)[C@H](CCCNC(=N)N)NC(=O)[C@H](Cc2c[nH]cn2)NC(=O)[C@@H](N)CSSC[C@@H](C(=O)O)NC(=O)[C@H](CCCNC(=N)N)NC(=O)[C@H](C(C)C)NC(=O)[C@H](Cc2c[nH]c3ccccc23)NC(=O)CNC(=O)[C@H]([C@@H](C)O)NC(=O)CNC1=O` [C5/D5.11, CHRVIGTGWVRC] (H-CHRVIGTGWVRC-OH; disulfide 1-12; N-terminus and C-terminus assumed), for which the solubility in data set [1] came out at 10 mM (≈ 13.8 mg/mL).

In data set [1], `CC[C@H](C)[C@H](NC(=O)[C@@H](NC(=O)[C@H](CCCNC(=N)N)NC(=O)[C@@H](N)CCC(=O)O)C(C)C)C(=O)NCC(=O)N[C@H](C(=O)NCC(=O)N[C@@H](Cc1c[nH]c2ccccc12)C(=O)N[C@H](C(=O)N[C@@H](CCCNC(=N)N)C(=O)O)C(C)C)[C@@H](C)O` [C5/D5.4, ERVIGTGWVR] (H-ERVIGTGWVR-OH; N-terminus and C-terminus assumed) displayed a solubility of 10 mM (≈ 11.7 mg/mL).

In the case of “CRRVIGRVGCGC (listed as Homo sapiens) [C5/D5.3]”, the “inhibitory effect of peptide on phage binding to C5/D5” value with mAb C5/D5 was “no inhibitory effects”.

For the compound `CC(C)[C@@H]1NC(=O)[C@H](Cc2c[nH]c3ccccc23)NC(=O)CNC(=O)[C@H](Cc2c[nH]cn2)NC(=O)CNC(=O)[C@@H]2CCCN2C(=O)[C@H](C(C)C)NC(=O)[C@H](CCCNC(=N)N)NC(=O)[C@H](Cc2c[nH]cn2)NC(=O)[C@@H](N)CSSC[C@@H](C(=O)O)NC(=O)[C@H](CCCNC(=N)N)NC1=O` [C5/D5.12, CHRVPGHGWVRC] (H-CHRVPGHGWVRC-OH; disulfide 1-12; N-terminus and C-terminus assumed), in data set [1], the solubility is 1 mM (≈ 1.4 mg/mL).

Consider “CD47-AP: recombinant CD47 IgV loop fused to alkaline phosphatase”, for which the “binding of AP fusion protein to SIRPα-GST (AP activity, OD405)” value in data set [2] is “bound”. Moreover, the “binding of CD47-AP to SIRPβ-GST” value with SIRPβ-GST is “lack of binding”.

In the case of `CC[C@H](C)[C@@H]1NC(=O)[C@H](C(C)C)NC(=O)CNC(=O)[C@H](CCCNC(=N)N)NC(=O)[C@H](Cc2c[nH]c3ccccc23)NC(=O)[C@H]([C@@H](C)O)NC(=O)[C@H](CCCNC(=N)N)NC(=O)[C@H](C(C)C)NC(=O)CNC(=O)[C@@H](N)CSSC[C@@H](C(=O)O)NC(=O)[C@H](CCC(=O)O)NC1=O` [C5/D5.5, CGVRTWRGVIEC] (H-CGVRTWRGVIEC-OH; disulfide 1-12; N-terminus and C-terminus assumed), in data set [1], the “solubility (in words)” value is given as “limited solubility” and the solubility was 2 mM (≈ 2.75 mg/mL).

For the compound `CC[C@H](C)[C@@H]1NC(=O)[C@H](C(C)C)NC(=O)[C@H](CCCNC(=N)N)NC(=O)[C@H](CCC(=O)O)NC(=O)[C@@H](N)CSSC[C@@H](C(=O)O)NC(=O)[C@H](CCCNC(=N)N)NC(=O)[C@H](C(C)C)NC(=O)[C@H](Cc2c[nH]c3ccccc23)NC(=O)CNC(=O)[C@H]([C@@H](C)O)NC(=O)CNC1=O` [C5/D5.1, CERVIGTGWVRC] (H-CERVIGTGWVRC-OH; disulfide 1-12; N-terminus and C-terminus assumed), the solubility in data set [1] worked out at 10 mM (≈ 13.8 mg/mL).

For the origin of these results see patent US7282556B2, “Polynucleotides and polypeptides relating to the modulation of SIRPα-CD47” (Emory University, priority 2001, dated 2007).
